Tests used:
Rat Adjuvant Arthritis = assay: Effects on Rat Adjuvant Arthritis; type: in vivo; settings: 336 h, Lewis rats, 50 mg/kg once a day for 14 days; for change in vivo at 50 mg/kg: based on drug-unadministered rats, read-out: Increase rate of body weight (%); for inhibition in vivo at 50 mg/kg: left hind leg, 14th day, read-out: Swelling inhibitory rate (%)
[1] = test system: Rat Carrageenin Paw Edema; assay: Rat Carrageenin Paw Edema Inhibitory Activity; type: in vivo; settings: Jcl:SD rats, 50 mg/kg orally, 3 hours after carrageenin
Method: Rat Carrageenin Paw Edema Inhibitory Activity
The volume of a planter part of a right hind leg of Jcl:SD rats (male, 6 weeks old) was measured, and then suspension of a test drug (50 mg/kg) in 5% acacia was administered orally. Then water was administered additionally so that the total amount of administered liquid became 5 ml/rat. After 1 hour, a suspension (0.05 ml) containing 1% carrageenin in physiological saline was injected intradermally into the plantar to induce swelling [Winter, C. A. et al; Proc. Soc. Exp. Biol. Med., 111, 544 (1962)]. The volume of the right hind leg was measured again 3 hours after the carrageenin injection, and swelling inhibitory rate was calculated from the difference in the volumes before and after the injection.

[2] = test system: mouse phenylquinone writhing; assay: Analgesic Activity in Mice (phenylquinone writhing model); type: in vivo; settings: Slc:ICR mice, 50 mg/kg orally, 20 minutes
Method: Analgesic Activity in Mice
A drug (50 mg/kg) suspended in 5% acacia was administered orally to Slc:ICR mice (male, 4 weeks old). After 30 minutes, a 0.02% phenylquinone solution (0.1 ml/[…]) in 5% ethanol was administered intraperitoneally. Writhing and stretching reactions for 20 minutes after the injection were calculated for each mouse to evaluate analgesic activity of the test drug [Siegmund, E. et al.; Proc. Soc. Exp. Biol. Med., 95, 729 (1957)].

IL-1β = assay: Anti-IL-1 activity (extracellular substrates of rat cartilage cells); type: cell-based; settings: 72 h, IL-1β 0.2 ng/ml, 3 days, read-out: IL-1 inhibitory activity (%)
Method: Rat cartilage cells were prepared according to the known method [Fujio Suzuki et al., Sin Seikagaku Jikken Kohza, 18, p.871-875 (1990)] and cultivated in Dulbecco's Medium containing 10% fetal bovine serum. After 8 days, various concentrations of a test drug and IL-1β (0.2 ng/ml) were added, and the cells were cultivated for additional 3 days. The amount of extracellular substrates thus produced was determined.
Although IL-1β inhibits the synthesis of extracellular substrates of cartilage cells, addition of the drug inhibits the IL-1 activity and the amount of extracellular substrates synthesized was recovered.

[3] = test system: Antigen-responsive T cell; assay: Antigen-Responsive T Cell Growth Inhibitory Activity (PPD-stimulated 3H-Tdr incorporation); type: cell-based, Lewis rats; settings: PPD 2 μg/ml, Lewis rat T cells, read-out: Antigen-responsive T cell growth inhibitory rate (%)
Method: Antigen-Responsive T Cell Growth Inhibitory Activity
According to the method of Test Example 1, adjuvant arthritis was induced in Lewis rats (male, 7 weeks old). After 14 days, lymphonodi inguinales were excised. Then, a single-cell suspension was prepared by using RPMI-1640 medium containing 5% fetal bovine serum and then incubated at 37° C. for 1 hour in a nylon wool column. The cells were eluted from the column with the same medium. The non-adsorptive cell-fraction was used as T cells.
On the other hand, spleen cells were taken out from unsensitized Lewis rats (male, 8 to 9 weeks old) and irradiated with soft X-rays (20,000 R). To the spleen cells (1×10^5 cells/well) were added the above T cells (5×10^5 cells/well), PPD (Purified Protein Derivatives; final concentration: 2 μg/ml) and 2% Lewis rat serum (treated at 56° C. for 30 minutes). The mixture was incubated at 37° C. for 72 hours in a 5% carbonic acid incubator. Further, ^3 H-Tdr (0.5 μCi/well) was added followed by incubation for 24 hours. The cells were recovered, and the radioactivity of ^3 H-Tdr incorporated into the cells was determined. The test drug was added to the cell suspension just before the addition of PPD, and effects on incorporation of ^3 H-Tdr into the cells were observed.

mice = assay: Oral toxicity in mice; type: in vivo; settings: 300 mg/kg administered orally to mice
Method: The compounds of the present invention have low toxicity. For example, when 300 mg/kg of the compounds prepared in Examples 36, 45, 47, 54 and 64 were administered orally to mice, no mice died. Therefore, the compounds of the present invention are useful as an anti-inflammatory agent, particularly an agent for treating arthritis producing inflammatory symptoms, in humans and other mammals.

| SMILES | change in vivo at 50 mg/kg (Rat Adjuvant Arthritis) [%] | inhibition in vivo at 50 mg/kg (Rat Adjuvant Arthritis) [%] | inhibition at 1 µM [3] [%] | inhibition at 10 µM [3] [%] | further results |
| --- | --- | --- | --- | --- | --- |
| CCOC(=O)c1c(C[S+]([O-])c2nccn2C)nc2cc(OC)c(OC)cc2c1-c1ccc(OC)c(OC)c1 (stereo not drawn) [Example 2, ethyl 6,7-dimethoxy-4-(3,4-dimethoxyphenyl)-2-[(1-methylimidazol-2-yl)sulfinylmethyl]quinoline-3-carboxylate] | 39 | 73 | – | – | – |
| CCOC(=O)c1c(C[S+]([O-])c2nc3ccccc3[nH]2)nc2cc(OC)c(OC)cc2c1-c1ccc(OC)c(OC)c1 (stereo not drawn) [Example 3, ethyl 2-[(2-benzimidazolyl)sulfinylmethyl]-6,7-dimethoxy-4-(3,4-dimethoxyphenyl)quinoline-3-carboxylate] | – | – | – | – | Swelling inhibitory rate (%) [1]: 23% |
| CCOC(=O)c1c(CSc2nc3ccccc3[nH]2)nc2cc(OC)c(OC)cc2c1-c1ccc(OC)cc1 [Example 27, ethyl 6,7-dimethoxy-4-(4-methoxyphenyl)-2-[(benzimidazol-2-yl)thiomethyl]quinoline-3-carboxylate] | – | – | – | – | Inhibitory rate (%) [2]: 39% |
| CCOC(=O)c1c(CSc2nccn2C)nc2cc(OC)c(OC)cc2c1-c1ccc(OC)cc1 [Example 28, ethyl 6,7-dimethoxy-4-(4-methoxyphenyl)-2-[(1-methylimidazol-2-yl)thiomethyl]quinoline-3-carboxylate] | – | – | – | – | Inhibitory rate (%) [2]: 43%; inhibition at 1 µM (IL-1β): 34%; inhibition at 10 µM (IL-1β): 44% |
| CCOC(=O)c1c(CSc2nccn2C)nc2cc(OC)c(OC)cc2c1-c1ccc(C)cc1 [Example 33, ethyl 6,7-dimethoxy-4-(4-methylphenyl)-2-[(1-methylimidazol-2-yl)thiomethyl]quinoline-3-carboxylate] | 12 | 67 | – | – | – |
| CCOC(=O)c1c(CSc2nncn2C)nc2cc(OC)c(OC)cc2c1-c1ccc(OC)c(OC)c1 [Example 35, ethyl 6,7-dimethoxy-4-(3,4-dimethoxyphenyl)-2-[(4-methyl-1,2,4-triazol-3-yl)thiomethyl]quinoline-3-carboxylate] | 11 | 64 | – | – | – |
| CCOC(=O)c1c(CSc2nccn2C)nc2cc(OC)c(OC)cc2c1-c1ccc(OC)c(OC)c1 [Example 36, ethyl 6,7-dimethoxy-4-(3,4-dimethoxyphenyl)-2-[(1-methylimidazol-2-yl)thiomethyl]quinoline-3-carboxylate] | 30 | 48 | 33 | 79 | Inhibitory rate (%) [2]: 59%; inhibition at 1 µM (IL-1β): 22%; inhibition at 10 µM (IL-1β): 48%; mortality (mice): no mice died |
| CCOC(=O)c1c(CSCc2ccc(Cl)cc2)nc2cc(OC)c(OC)cc2c1-c1ccc(OC)c(OC)c1 [Example 41, ethyl 6,7-dimethoxy-4-(3,4-dimethoxyphenyl)-2-[(4-chlorophenyl)methylthiomethyl]quinoline-3-carboxylate] | – | – | – | – | inhibition at 1 µM (IL-1β): 17%; inhibition at 10 µM (IL-1β): 50% |
| CCOC(=O)c1c(CSc2ccc(Cl)cc2)nc2cc(OC)c(OC)cc2c1-c1ccc(OC)c(OC)c1 [Example 42, ethyl 6,7-dimethoxy-4-(3,4-dimethoxyphenyl)-2-[(4-chlorophenyl)thiomethyl]quinoline-3-carboxylate] | – | – | – | – | Inhibitory rate (%) [2]: 47% |
| CCOC(=O)c1c(CSc2nccc(=O)[nH]2)nc2cc(OC)c(OC)cc2c1-c1ccc(OC)c(OC)c1 [Example 45, ethyl 6,7-dimethoxy-4-(3,4-dimethoxyphenyl)-2-[(6(1H)-pyrimidon-2-yl)thiomethyl]quinoline-3-carboxylate] | – | – | 36 | 70 | mortality (mice): no mice died |
| CCOC(=O)c1c(CSc2ncccc2O)nc2cc(OC)c(OC)cc2c1-c1ccc(OC)c(OC)c1 [Example 46, ethyl 6,7-dimethoxy-4-(3,4-dimethoxyphenyl)-2-[(3-hydroxypyridin-2-yl)thiomethyl]quinoline-3-carboxylate] | – | – | 39 | 92 | – |
| CCOC(=O)c1c(CSC2=NCCS2)nc2cc(OC)c(OC)cc2c1-c1ccc(OC)c(OC)c1 [Example 47, ethyl 6,7-dimethoxy-4-(3,4-dimethoxyphenyl)-2-[(2-thiazolin-2-yl)thiomethyl]quinoline-3-carboxylate] | – | – | 61 | 93 | mortality (mice): no mice died |
| CCOC(=O)c1c(CSc2nc3ccccc3[nH]2)nc2cc(OC)c(OC)cc2c1-c1ccc(OC)c(OC)c1 [Example 53, ethyl 6,7-dimethoxy-4-(3,4-dimethoxyphenyl)-2-[(benzimidazol-2-yl)thiomethyl]quinoline-3-carboxylate] | – | – | 51 | 91 | inhibition at 1 µM (IL-1β): 39%; inhibition at 10 µM (IL-1β): 71% |
| CCOC(=O)c1c(CSc2nc3ccc(F)cc3[nH]2)nc2cc(OC)c(OC)cc2c1-c1ccc(OC)c(OC)c1 [Example 54, ethyl 6,7-dimethoxy-4-(3,4-dimethoxyphenyl)-2-[(5-fluorobenzimidazol-2-yl)thiomethyl]quinoline-3-carboxylate] | – | – | – | – | Swelling inhibitory rate (%) [1]: 21%; mortality (mice): no mice died |
| CCOC(=O)c1c(CSc2nc3ccccc3s2)nc2cc(OC)c(OC)cc2c1-c1ccc(OC)c(OC)c1 [Example 60, ethyl 6,7-dimethoxy-4-(3,4-dimethoxyphenyl)-2-[(benzothiazol-2-yl)thiomethyl]quinoline-3-carboxylate] | – | – | 59 | 91 | Swelling inhibitory rate (%) [1]: 31% |
| CCOC(=O)c1c(CSc2nnc3ccccn23)nc2cc(OC)c(OC)cc2c1-c1ccc(OC)c(OC)c1 [Example 66, ethyl 6,7-dimethoxy-4-(3,4-dimethoxyphenyl)-2-[(pyrido[1,2-a][1,3,4]triazol-5-yl)thiomethyl]quinoline-3-carboxylate] | – | – | – | – | Inhibitory rate (%) [2]: 58% |
| CCOC(=O)c1c(CSc2nccn2C)nc2cc(OC)c(OC)cc2c1-c1ccc2c(c1)OCO2 [Example 69, ethyl 6,7-dimethoxy-4-(3,4-methylenedioxyphenyl)-2-[(1-methylimidazol-2-yl)thiomethyl]quinoline-3-carboxylate] | 17 | 63 | – | – | – |
| CCOC(=O)c1c(CSc2nccn2C)nc2cc(OCC)c(OCC)cc2c1-c1ccc(OC)c(OC)c1 [Example 72, ethyl 6,7-diethoxy-4-(3,4-dimethoxyphenyl)-2-[(1-methylimidazol-2-yl)thiomethyl]quinoline-3-carboxylate] | 27 | 50 | – | – | – |
| CCOC(=O)c1c(CCc2nccn2C)nc2cc(OC)c(OC)cc2c1-c1ccc(OC)c(OC)c1 [Example 87, ethyl 6,7-dimethoxy-4-(3,4-dimethoxyphenyl)-2-[2-(1-methylimidazol-2-yl)ethyl]quinoline-3-carboxylate] | 27 | 75 | – | – | – |
| COc1ccc(-c2nc(CCc3nccn3C)nc3cc(OC)c(OC)cc23)cc1OC [Example 88, 6,7-dimethoxy-4-(3,4-dimethoxyphenyl)-2-[2-(1-methylimidazol-2-yl)ethyl]quinazoline] | 24 | 62 | – | – | – |

Reference: patent US5948782A, “Pharmaceutical composition containing quinoline and quinazoline derivatives and novel compounds therefor” (Takeda Chemical, priority 1992, dated 1999)
